Experimental data as given in patent US8349824B2, “Triazolopyridine compounds” (Hoffmann-La Roche Inc., priority 2010, dated 2013).
pIC50: −log10 of the molar value.

The compounds below were run against T1, human PDE10A full length (Homo sapiens, UniProt Q9Y233) (assay: PDE10A Scintillation Proximity Assay (SPA), human PDE10A full length assay). Conditions: 50 nM cGMP + 50 nM [3H]-cGMP, 20 minutes at room temperature, read-out: PDE10A inhibition IC50.
T1 construct: purchased Enzo Life Science, Lausen, Switzerland SE-534
T1 sequence (Q9Y233 1-779 isoform Q9Y233-1): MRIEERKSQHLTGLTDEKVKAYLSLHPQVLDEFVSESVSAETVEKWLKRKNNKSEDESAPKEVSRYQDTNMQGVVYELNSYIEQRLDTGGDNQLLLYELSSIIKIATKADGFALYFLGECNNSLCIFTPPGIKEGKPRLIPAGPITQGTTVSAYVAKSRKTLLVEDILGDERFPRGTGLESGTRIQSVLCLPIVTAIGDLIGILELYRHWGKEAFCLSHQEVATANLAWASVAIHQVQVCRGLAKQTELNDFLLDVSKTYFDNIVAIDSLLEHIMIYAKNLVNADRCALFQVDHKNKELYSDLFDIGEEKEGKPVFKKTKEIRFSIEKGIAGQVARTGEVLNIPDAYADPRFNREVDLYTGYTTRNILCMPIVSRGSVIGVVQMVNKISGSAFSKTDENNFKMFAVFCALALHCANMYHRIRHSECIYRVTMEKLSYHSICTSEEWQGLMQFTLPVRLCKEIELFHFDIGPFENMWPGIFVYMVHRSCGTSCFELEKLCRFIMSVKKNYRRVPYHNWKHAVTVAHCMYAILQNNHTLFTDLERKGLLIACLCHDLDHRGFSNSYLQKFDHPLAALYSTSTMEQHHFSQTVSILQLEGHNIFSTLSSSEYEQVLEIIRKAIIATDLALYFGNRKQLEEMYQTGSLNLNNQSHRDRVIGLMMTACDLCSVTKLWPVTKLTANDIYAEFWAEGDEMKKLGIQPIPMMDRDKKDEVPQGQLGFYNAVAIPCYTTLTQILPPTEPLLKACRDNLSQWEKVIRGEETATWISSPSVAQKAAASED
Type: biochemical
Protocol: The following test was carried out in order to determine the activity of the compounds of the present invention. PDE10 activity of the compounds of the present invention was determined using a Scintillation Proximity Assay (SPA)-based method similar to the one previously described (Fawcett, L. et al., Proc Natl Acad Sci USA (2000) 97(7):3702-3707).
The human PDE10A full length assay was performed in 96-well micro titer plates. The reaction mixture of 50 μl contained 20 mM HEPES pH=7.5/10 mM MgCl2/0.05 mg/ml BSA (Sigma cat. #A-7906), 50 nM cGMP (Sigma, cat. #G6129) and 50 nM [^3H]-cGMP (GE Healthcare, cat. #TRK392 S.A. 13.2Ci/mmol), 3.75 ng/well PDE10A enzyme (Enzo Life Science, Lausen, Switzerland cat #SE-534) with or without a specific test compound. A range of concentrations of the potential inhibitor was used to generate data for calculating the concentration of inhibitor resulting in 50% of the effect (e.g. IC50, the concentration of the competitor inhibiting PDE10A activity by 50%). Non-specific activity was tested without the enzyme. The reaction was initiated by the addition of the substrate solution (cGMP and [^3H]-cGMP) and allowed to progress for 20 minutes at room temperature. The reaction was terminated by adding 25 μl of YSi-SPA scintillation beads (GE Healthcare, cat. #RPNQ0150) in 18 mM zinc sulphate solution (stop reagent). After 1 h under shaking, the plate was centrifuged one minute at 170 g to allow beads to settle. Afterwards, radioactive counts were measured on a Perkin Elmer TopCount Scintillation plate reader.

Row | SMILES | pIC50
1 | CN(CCF)C(=O)c1cnn(C)c1C(=O)Nc1ccn2nc(N3CCOCC3)nc2c1 [Example 21, N4-(2-Fluoroethyl)-N4,1-dimethyl-N5-(2-morpholino-[1,2,4]triazolo[1,5-a]pyridin-7-yl)-1H-pyrazole-4,5-dicarboxamide] | 7.58
2 | CC(C)OC(=O)c1cnn(C)c1C(=O)Nc1ccn2nc(-c3ccccc3)nc2c1 [Example 27, Isopropyl 1-methyl-5-(2-phenyl-[1,2,4]triazolo[1,5-a]pyridin-7-ylcarbamoyl)-1H-pyrazole-4-carboxylate] | 8.10
3 | Cn1ncc(C(=O)N2CCC2)c1C(=O)Nc1ccn2nc(C(=O)NCCC(F)(F)F)nc2c1 [Example 33, 7-(4-(Azetidine-1-carbonyl)-1-methyl-1H-pyrazole-5-carboxamido)-N-(3,3,3-trifluoropropyl)-[1,2,4]triazolo[1,5-a]pyridine-2-carboxamide] | 7.54
4 | Cn1ncc(C(=O)N2CCCC2)c1C(=O)Nc1ccn2nc(N3CCOCC3)nc2c1 [Example 42, 1-Methyl-N-(2-morpholino-[1,2,4]triazolo[1,5-a]pyridin-7-yl)-4-(pyrrolidine-1-carbonyl)-1H-pyrazole-5-carboxamide] | 8.29
5 | Cn1ncc(C(=O)N2CC(F)C2)c1C(=O)Nc1ccn2nc(N3CCOCC3)nc2c1 [Example 43, 4-(3-Fluoroazetidine-1-carbonyl)-1-methyl-N-(2-morpholino-[1,2,4]triazolo[1,5-a]pyridin-7-yl)-1H-pyrazole-5-carboxamide] | 8.42
6 | CN(C(=O)c1cnn(C)c1C(=O)Nc1ccn2nc(N3CCOCC3)nc2c1)C1CC1 [Example 53, N4-cyclopropyl-N4,1-dimethyl-N5-(2-morpholino-[1,2,4]triazolo[1,5-a]pyridin-7-yl)-1H-pyrazole-4,5-dicarboxamide] | 8.95
7 | CN(CC(F)(F)F)C(=O)c1cnn(C)c1C(=O)Nc1ccn2nc(N3CCOCC3)nc2c1 [Example 54, 2-Methyl-2H-pyrazole-3,4-dicarboxylic acid 4-[methyl-(2,2,2-trifluoro-ethyl)-amide]3-[(2-morpholin-4-yl-[1,2,4]triazolo[1,5-a]pyridin-7-yl)-amide]] | 7.09
8 | CN(C)C(=O)c1nc2cc(NC(=O)c3c(C(=O)N4CCC4)cnn3C)ccn2n1 [Example 62, 7-{[4-(Azetidine-1-carbonyl)-2-methyl-2H-pyrazole-3-carbonyl]-amino}-[1,2,4]triazolo[1,5-a]pyridine-2-carboxylic acid dimethylamide] | 6.95
9 | COc1cccc(-c2nc3cc(NC(=O)c4c(C(=O)N5CCOCC5)cnn4C)ccn3n2)c1 [Example 76, 2-Methyl-4-(morpholine-4-carbonyl)-2H-pyrazole-3-carboxylic acid [2-(3-methoxy-phenyl)-[1,2,4]triazolo[1,5-a]pyridin-7-yl]-amide] | 8.29
10 | CCN(C)C(=O)c1cnn(C)c1C(=O)Nc1ccn2nc(-c3cccc(OC)c3)nc2c1 [Example 79, 2-Methyl-2H-pyrazole-3,4-dicarboxylic acid 4-(ethyl-methyl-amide)3-{[2-(3-methoxy-phenyl)-[1,2,4]triazolo[1,5-a]pyridin-7-yl]-amide}] | 8.76
11 | Cn1ncc(C(=O)N2CCOCC2)c1C(=O)Nc1ccn2nc(-c3cccc(OCF)c3)nc2c1 [Example 82, 2-Methyl-4-(morpholine-4-carbonyl)-2H-pyrazole-3-carboxylic acid [2-(3-fluoromethoxy-phenyl)-[1,2,4]triazolo[1,5-a]pyridin-7-yl]-amide] | 9.11
12 | CN(C)C(=O)c1cnn(C)c1C(=O)Nc1ccn2nc(-c3cccc(OCCF)c3)nc2c1 [Example 85, 2-Methyl-2H-pyrazole-3,4-dicarboxylic acid 4-dimethylamide 3-({2-[3-(2-fluoro-ethoxy)-phenyl]-[1,2,4]triazolo[1,5-a]pyridin-7-yl}-amide)] | 9.14

These reach a higher pIC50. Values come first.

Row | pIC50 | SMILES
13 | 9.37 | COCCN(CCOC)C(=O)c1cnn(C)c1C(=O)Nc1ccn2nc(-c3ccccc3)nc2c1 [Example 6, N4,N4-bis(2-methoxyethyl)-1-methyl-N5-(2-phenyl-[1,2,4]triazolo[1,5-a]pyridin-7-yl)-1H-pyrazole-4,5-dicarboxamide]
14 | 9.57 | Cn1ncc(C(=O)N2CCOCC2)c1C(=O)Nc1ccn2nc(-c3ccccc3)nc2c1 [Example 12, 1-Methyl-4-(morpholine-4-carbonyl)-N-(2-phenyl-[1,2,4]triazolo[1,5-a]pyridin-7-yl)-1H-pyrazole-5-carboxamide]
15 | 9.37 | CN(CCF)C(=O)c1cnn(C)c1C(=O)Nc1ccn2nc(-c3ccccc3)nc2c1 [Example 26, 2-Methyl-2H-pyrazole-3,4-dicarboxylic acid 4-[(2-fluoro-ethyl)-methyl-amide]3-[(2-phenyl-[1,2,4]triazolo[1,5-a]pyridin-7-yl)-amide]]
16 | 9.35 | CN(C(=O)c1cnn(C)c1C(=O)Nc1ccn2nc(-c3cccnc3)nc2c1)C1CC1 [Example 55, 2-Methyl-2H-pyrazole-3,4-dicarboxylic acid 4-(cyclopropyl-methyl-amide)3-[(2-pyridin-3-yl-[1,2,4]triazolo[1,5-a]pyridin-7-yl)-amide]]
17 | 9.17 | COc1ccccc1-c1nc2cc(NC(=O)c3c(C(=O)N4CCOCC4)cnn3C)ccn2n1 [Example 69, 2-Methyl-4-(morpholine-4-carbonyl)-2H-pyrazole-3-carboxylic acid [2-(2-methoxy-phenyl)-[1,2,4]triazolo[1,5-a]pyridin-7-yl]-amide]
18 | 9.51 | COc1cccc(-c2nc3cc(NC(=O)c4c(C(=O)N5CCC5)cnn4C)ccn3n2)c1 [Example 75, 4-(Azetidine-1-carbonyl)-2-methyl-2H-pyrazole-3-carboxylic acid [2-(3-methoxy-phenyl)-[1,2,4]triazolo[1,5-a]pyridin-7-yl]-amide]
19 | 9.24 | COCCN(C)C(=O)c1cnn(C)c1C(=O)Nc1ccn2nc(-c3cccc(OC)c3)nc2c1 [Example 77, 2-Methyl-2H-pyrazole-3,4-dicarboxylic acid 4-[(2-methoxy-ethyl)-methyl-amide]3-{[2-(3-methoxy-phenyl)-[1,2,4]triazolo[1,5-a]pyridin-7-yl]-amide}]
20 | 9.49 | COc1cccc(-c2nc3cc(NC(=O)c4c(C(=O)N(C)C)cnn4C)ccn3n2)c1 [Example 78, 2-Methyl-2H-pyrazole-3,4-dicarboxylic acid 4-dimethylamide 3-{[2-(3-methoxy-phenyl)[1,2,4]triazolo[1,5-a]pyridin-7-yl]-amide}]
21 | 9.39 | Cn1ncc(C(=O)N2CCOCC2)c1C(=O)Nc1ccn2nc(-c3cccc(O)c3)nc2c1 [Example 80, 2-Methyl-4-(morpholine-4-carbonyl)-2H-pyrazole-3-carboxylic acid [2-(3-hydroxy-phenyl)-[1,2,4]triazolo[1,5-a]pyridin-7-yl]-amide]
22 | 9.23 | Cn1ncc(C(=O)N2CCOCC2)c1C(=O)Nc1ccn2nc(-c3cccc(OCCF)c3)nc2c1 [Example 81, 2-Methyl-4-(morpholine-4-carbonyl)-2H-pyrazole-3-carboxylic acid {2-[3-(2-fluoro-ethoxy)-phenyl]-[1,2,4]triazolo[1,5-a]pyridin-7-yl}-amide]
23 | 9.20 | CCN(C)C(=O)c1cnn(C)c1C(=O)Nc1ccn2nc(-c3cccc(OCCF)c3)nc2c1 [Example 83, 2-Methyl-2H-pyrazole-3,4-dicarboxylic acid 4-(ethyl-methyl-amide)3-({2-[3-(2-fluoro-ethoxy)-phenyl]-[1,2,4]triazolo[1,5-a]pyridin-7-yl}-amide)]
24 | 9.27 | CCN(C)C(=O)c1cnn(C)c1C(=O)Nc1ccn2nc(-c3cccc(OCF)c3)nc2c1 [Example 84, 2-Methyl-2H-pyrazole-3,4-dicarboxylic acid 4-(ethyl-methyl-amide)3-{[2-(3-fluoromethoxy-phenyl)-[1,2,4]triazolo[1,5-a]pyridin-7-yl]-amide}]
25 | 9.22 | CN(C)C(=O)c1cnn(C)c1C(=O)Nc1ccn2nc(-c3cccc(OCF)c3)nc2c1 [Example 86, 2-Methyl-2H-pyrazole-3,4-dicarboxylic acid 4-dimethylamide 3-{[2-(3-fluoromethoxy-phenyl)-[1,2,4]triazolo[1,5-a]pyridin-7-yl]-amide}]
26 | 9.37 | COCCN(C)C(=O)c1cnn(C)c1C(=O)Nc1ccn2nc(-c3cccc(O)c3)nc2c1 [Example 87, 2-Methyl-2H-pyrazole-3,4-dicarboxylic acid 3-{[2-(3-hydroxy-phenyl)-[1,2,4]triazolo[1,5-a]pyridin-7-yl]-amide} 4-[(2-methoxy-ethyl)-methyl-amide]]
27 | 9.38 | COCCN(C)C(=O)c1cnn(C)c1C(=O)Nc1ccn2nc(-c3cccc(OCCF)c3)nc2c1 [Example 88, 2-Methyl-2H-pyrazole-3,4-dicarboxylic acid 3-({2-[3-(2-fluoro-ethoxy)-phenyl]-[1,2,4]triazolo[1,5-a]pyridin-7-yl}-amide)4-[(2-methoxy-ethyl)-methyl-amide]]
